From the Kinase Knowledgebase extract (Sharma et al. 2016)

Columns and labels:
[1] = target: MAPK14 (human) (UniProt Q16539); conditions: Monocyte
[2] = test system: MAPK14 (Balb/c mice); test: TNF-alpha Inhibition (Balb/c Mice)
[3] = target: MAPK14 (UniProt Q16539); test: P38-alpha Kinase Inhibition
MAPK14, sequence (Q16539 whole entry, looked up): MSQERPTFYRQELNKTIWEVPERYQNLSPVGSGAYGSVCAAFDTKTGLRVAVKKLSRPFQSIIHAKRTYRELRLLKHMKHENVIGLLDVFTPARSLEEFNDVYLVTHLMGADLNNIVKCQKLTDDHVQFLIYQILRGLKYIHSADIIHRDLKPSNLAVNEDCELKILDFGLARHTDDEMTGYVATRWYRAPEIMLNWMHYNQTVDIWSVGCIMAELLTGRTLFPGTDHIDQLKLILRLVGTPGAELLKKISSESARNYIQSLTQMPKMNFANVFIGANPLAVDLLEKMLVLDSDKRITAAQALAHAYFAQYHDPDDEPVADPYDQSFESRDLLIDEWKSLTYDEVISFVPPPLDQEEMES

MAPK14 (human), sequence (Q16539 whole entry, looked up): as above

Row | Compound | EC50 [1] [nM] | ED50 [2] [mg/kg] | IC50 [3] [nM]
1 | CC(C)C1O[C@H](c2nc(-c3ccncc3)c(-c3ccc(F)cc3)[nH]2)OCC1(C)C (stereo partly specified) | 115 |  | 
2 | OC[C@H]1CO[C@@H](c2nc(-c3ccncc3)c(-c3ccc(F)cc3)[nH]2)OC1 | 200 |  | 
3 | C[C@]1(CNC(=O)c2ccccc2)CO[C@H](c2nc(-c3ccncc3)c(-c3ccc(F)cc3)[nH]2)OC1 | 84 |  | 
4 | C[C@]1(NC(=O)c2ccccc2)CO[C@H](c2nc(-c3ccncc3)c(-c3ccc(F)cc3)[nH]2)OC1 | 110 | 11 | 44
5 | C[C@]1(CN)CO[C@H](c2nc(-c3ccncc3)c(-c3ccc(F)cc3)[nH]2)OC1 | 38 |  | 
6 | C=C1COC(c2nc(-c3ccncc3)c(-c3ccc(F)cc3)[nH]2)OC1 | 117 |  | 
7 | Fc1ccc(-c2[nH]c([C@H]3OC[C@@H](Cc4ccccc4)CO3)nc2-c2ccncc2)cc1 | 145 |  | 
8 | C[C@]1(C(=O)N2CCOCC2)CO[C@H](c2nc(-c3ccncc3)c(-c3ccc(F)cc3)[nH]2)OC1 | 110 | 6 | 50
9 | Fc1ccc(-c2[nH]c([C@H]3OC[C@H](Cc4ccccc4)CO3)nc2-c2ccncc2)cc1 | 191 |  | 
10 | C[C@]1(N)CO[C@H](c2nc(-c3ccncc3)c(-c3ccc(F)cc3)[nH]2)OC1 | 180 |  | 
11 | C[C@]1(N)CO[C@@H](c2nc(-c3ccncc3)c(-c3ccc(F)cc3)[nH]2)OC1 | 55 |  | 
12 | C[C@]1(CN)CO[C@@H](c2nc(-c3ccncc3)c(-c3ccc(F)cc3)[nH]2)OC1 | 33 |  | 
